# In patent US20220241437A1, “ATHER[…] AGENTS AND METHODS OF USING THE SAME” (THE GENERAL HOSPITAL CORPORATION, priority 2015, published 2022):
# Read-outs that look alike come from different tables or passages of the source.
# Tests used:
# atheroma = test: NIRF / multi-wavelength fluorescence reflectance imaging (FRI) of resected aortas in rabbit atherosclerosis model; assay type: in vivo; conditions: for co-localization in atherosclerotic zones by FRI: MB 1 mg/kg 24 hours and ICG 0.5 mg/kg 0.5 hours before imaging, rabbit m464
# From the text: New Zealand white rabbits (3-4 kg, Charles River Laboratories, n=2) were fed a high cholesterol diet (0.3% total cholesterol, 5% peanut oil; Research Diets) and were subjected to an infrarenal abdominal aorta injury using a 3F Fogarty embolectomy balloon (Edwards Lifesciences). The 3F balloon was inserted percutaneously via the femoral artery, inflated to nominal pressure, and withdrawn under tension and repeated. After recovery from the injury, the rabbits were continued on the 0.3% high cholesterol diet, and their total serum cholesterol levels were routinely measured (Hemagen Diagnostics).
# 24 hours prior to atheroma imaging, 1 mg/kg concentration of MB in a phosphate buffer saline solution was administered to the rabbit subjects intravenously.
# 28 days after aortic injury and continuation on the high cholesterol diet, the rabbits were anesthetized and imaged using various imaging modalities. An aortic angiography (ARCADIS Varic C-arm fluoroscopy unit, Siemens) was performed on the rabbits with a manual contrast injection. After the angiography, an intravascular ultrasound (IVUS) was performed using a catheter (iLab, Boston Scientific). The IVUS catheter was used with an automated 0.5 mm/second pullback across the previously injured aortic region to assess plaque burden. Finally, the rabbit subjects underwent near-infrared fluorescence optical coherence tomography (NIRF-OCT) imaging.
# Following multimodality imaging, the rabbits were euthanized, and their aortas were removed and placed in saline at 4° C. The freshly resected aortas were imaged using multi-wavelength fluorescence reflectance imaging (FRI) with fluorescein isothiocyanite (FITC) and MB having emission wavelengths of 535 nm and 700 nm, respectively. While using the FRI system (Kodak ImageStation 4000, Carestream Health), the excitation source used for triggering FITC's autofluorescence was focused around 470 nm with an exposure time of 4 seconds. MB's near-infrared fluorescence was triggered by excitation wavelengths around 630 nm for 64 seconds. […] The target-to-background ratios(TBRs) were calculated for each ROI as the mean plaque fluorescence divided by the background fluorescence measured in the adjacent normal vessel.
# A concentration of 1 mg/kg MB in phosphate buffer saline solution was co-injected with a 0.5 mg/kg solution of indocyanine green (ICG) into the aorta of the rabbit subject, m464, 24 hours and 0.5 hours before imaging, respectively. Fluorescence reflectance imaging (FRI) was performed to evaluate uptake and distribution of MB and ICG. […]
# The TBRs were calculated as the mean fluorescence divided by the background fluorescence of the adjacent normal aorta. […]
# [1] = phosphate buffer saline solution; cited from earlier work
# [2] = Half-life of MB in rabbit bloodstream from fluorescence intensity over time; assay type: in vivo; conditions: blood, intravenous, 1 mg/kg
# Method: The methylene blue (MB) binding and uptake was evaluated in a rabbit model of atherosclerosis of the abdominal aorta. […] The half-life for MB in rabbit bloodstreams was measured in two subjects, m463 and m464 that had been subjected to a high cholesterol diet and the high inflammation protocol.
# atherosclerotic lesions = test: Fluorescence microscopy, histology and RAM11 immunohistochemistry of aorta/vessel cross-sections; assay type: in vivo, rabbit
# Method: A histology analysis for the aortas was then performed. The excised aortas were filled with an optimal cutting temperature compound and then snap frozen on dry ice. Using a cryostat (Leica CM3050 S), 8 μm sections of the aortas were obtained. The tissue sections were stained for hemotoxylin and eosin (H&E), Masson's Trichrome, and Oil Red 0 (ORO) histological imaging. Additionally, immunohistochemistry tests were performed for macrophages (RAM11; Dako).
# Unstained tissue sections were imaged with a multi-wavelength fluorescence microscope (Nikon Eclipse 90i) for FITC and MB. FITC's autofluorescence emissions at 535 nm were excited with a 480 nm source, and MB's near-infrared fluorescent emissions at 700 nm were excited with a 630 nm Cy5.5 source.
# The co-localization of MB and ICG found through FRI was also verified using high-resolution epifluorescence microscopy of fresh-frozen tissue cross-sections from the areas of interest outlined in the FRI results. […] Further, the MB binding was associated with cellular uptake when evaluating sections counterstained with a fluorescent nuclear stain.
# Fluorescent microscopy (FM) was performed on a cross-section of the aorta of m464 in the fluorescein isothiocyanite (FITC) and Cy5 channels. […] The white areas represent the near-infrared fluorescence of MB under a Cy5.5 source. The grey areas represent the autofluorescence of FITC. There is little overlap between the MB and FITC areas, evidencing the unique uptake and binding profile for MB in atherosclerotic structures not targeted by other imaging agents. […] Again, the distinction between the areas of MB binding and FITC autofluorescence indicate MB's utility as an atheroma targeting agent unlike any other. Further, the TBR of MB in FIGS. 6A and 6B illustrates the robustness of the targeting profile of MB.
# Moreover, FIGS. 7A-7C show FM images of an axial section of a subject's vessel including a venous thrombus after undergoing vessel injury according to the high inflammation protocol. The subject was injected with a 1 mg/kg MB concentration in a phosphate buffer saline solution 24 hours prior to imaging. […] This again evidences the unique binding pattern that MB may offer for vascular imaging.
# MB binding in the aortas of the subjects was also evaluated using traditional histological stains. A tissue cross-section fluorescently imaged to evaluate MB uptake was further treated with a hemotoxylin and eosin (H&E) stain. […] Even less cellular areas were also found to have MB uptake.
# Finally, the cross-section was imaged using immunohistochemical-staining techniques. The immunohistochemical stain RAM11 which is a known macrophage marker was used to cross-correlate the MB binding images. […] These areas where not limited to a specific location. For example, one area of consistent MB and RAM11 co-localization was located near the luminal side of internal elastic lamina as well as other regions of the atheroma.
# [3] = healthy human volunteers, intravenous (Peter et al. 2000); cited from earlier work
SMILES,co-localization in atherosclerotic zones by FRI (atheroma),"deposition in plaques detected by NIRF imaging (atheroma; 1 mg/kg intravenous, rabbit atherosclerosis model)","target-to-background ratios (TBRs) of aortas (atheroma; MB 1 mg/kg i.v. 24 hours before imaging, versus aortas without MB, FRI)",molar attenuation coefficient [1],quantum yield [1] [%],quenching threshold [1] [µM],"half-life ([2]; 1 phase exponential decay of fluorescence intensity, read-out: half-life of MB in bloodstream (converted)) [min]","half-life ([2]; mean of m463 and m464, read-out: average of the MB half-life in the rabbits tested (converted)) [min]","half-life ([2]; rabbit subject m463, 1 phase exponential decay of fluorescence intensity, read-out: half-life of MB in bloodstream (converted)) [min]","half-life ([2]; rabbit subject m463, read-out: half-life of MB in bloodstream (converted)) [min]",half-life ([2]; read-out: half-life of MB in bloodstream (converted)) [min],"targeting to atheroma in FM image of aortic cross-section (atherosclerotic lesions; 1 mg/kg i.v. 24 hours before imaging, NIRF absent from normal arterial wall)",uptake in vessel with venous thrombus (FM) (atherosclerotic lesions; 1 mg/kg in phosphate buffer saline 24 hours prior to imaging),association of uptake with macrophages (RAM11 staining) (atherosclerotic lesions; aortic cross-section),depth of binding in lesions (H&E histology) (atherosclerotic lesions; aortic cross-section),localization of uptake by high-resolution epifluorescence microscopy (atherosclerotic lesions; fresh-frozen tissue cross-sections),blood half-life [3] [h]
"CC1(C)C(/C=C/C=C/C=C/C=C2\N(CCCCS(=O)(=O)O)c3ccc4ccccc4c3C2(C)C)=[N+](CCCCS(=O)(=O)[O-])c2ccc3ccccc3c21 [ICG, Indocyanine green]",co-localization of MB and ICG in the atherosclerotic zones of the aorta,–,–,–,–,–,–,–,–,–,–,–,–,–,–,–,–
"CN(C)c1ccc2nc3ccc(N(C)C)cc3[s+]c2c1.[Cl-] [MB, [7-(dimethylamino)phenothiazin-3-ylidene]-dimethylazanium chloride]",co-localization of MB and ICG in the atherosclerotic zones of the aorta,can produce deposition of MB in plaques of rabbits,higher TBRs than those without MB,"73,000 cm^−1/M",5.3,12.5,441,~315,188,~180,~444,highly targeted to the atheroma,distinct spots or drops along the inner vessel walls and in the venous thrombus,associated with areas positive for macrophages in the RAM11 staining,seen in specific regions permeating the entire depth of the lesions,localize in both microscopic lesions and atherosclerotic lesions with greater than 60% stenosis,5.25
